Reference: patent US20210038554A1, “DIETARY BUTYRATE” (SOCIETE DES PRODUITS NESTLE S.A., priority 2018, published 2021)

Legend:
[1] = system: rabbit gastric lipase (RGL) followed by porcine pancreatic lipase (PPL); assay: In vitro sequential digestion SGF followed by SIF, pH-stat; assay type: in vitro ADME
Method: (§1) The lipid emulsion (2 mL) containing 200 mg of fat was subjected to gastrointestinal in vitro lipolysis. […] For gastric digestion, the sample was incubated for 90 minutes with 8.5 mL of simulated gastric fluid (SGF), which consisted of 150 mM NaCl, 450 U/mL pepsin, 18 U/mL rabbit gastric lipase at 37° C. and a pH of 5.5.
The intestinal digestion step was performed in the pH stat where the pH was kept constant at 6.8 by addition of NaOH (0.05 M). […] The intestinal digestion step starts when the temperature reaches 37±0.5° C. The pH was adjusted to pH 6.8 and after incubation of two minutes at this pH and temperature, a pancreatin solution (5 mM tris, 150 mM NaCl at pH 6.8) was added. The final composition of the intestinal fluid was 10 mM CaCl2), 12 mM mixed bile salts, 0.75 mM phospholipid, 150 mM NaCl and 4 mM tris(hydroxymethyl)aminomethane buffer. The intestinal digestion step was carried out for 3 hours in a titration manager from Radiometer. During the intestinal phase of digestion, the kinetics of digestion were followed using a pH-stat (TIM856, Radiometer) technique and expressed as titratable acid (rather than fatty acid) that was calculated by the equation:
TA: Total titratable acid released, mmol; VNaOH: volume of NaOH used to titrate the released acid in 3 h, mL.
(§2) Since the digestion of dietary lipids involves lipases of both gastric and intestinal origin, lipid digestibility was assessed using two digestion models i) simulated intestinal fluid (SIF) with porcine pancreatic lipase (PPL) and ii) sequential digestion in simulated gastric fluid (SGF) with rabbit gastric lipase (RGL) followed by simulated intestinal fluid (SIF) with porcine pancreatic lipase (PPL).

[2] = target: T1, porcine pancreatic lipase (from pancreatin) (Sus scrofa, UniProt P00591); assay: In vitro digestion, simulated intestinal fluid (SIF) model, pH-stat; assay type: in vitro ADME; settings: SIF alone; 200 mg fat emulsion, pH 6.8, 37° C.
T1 construct: pancreatin (Porcine, USP×8, P7585); purchased Sigma-Aldrich P7585; host or cells: porcine pancreas extract (pancreatin)
T1 sequence (P00591 1-450): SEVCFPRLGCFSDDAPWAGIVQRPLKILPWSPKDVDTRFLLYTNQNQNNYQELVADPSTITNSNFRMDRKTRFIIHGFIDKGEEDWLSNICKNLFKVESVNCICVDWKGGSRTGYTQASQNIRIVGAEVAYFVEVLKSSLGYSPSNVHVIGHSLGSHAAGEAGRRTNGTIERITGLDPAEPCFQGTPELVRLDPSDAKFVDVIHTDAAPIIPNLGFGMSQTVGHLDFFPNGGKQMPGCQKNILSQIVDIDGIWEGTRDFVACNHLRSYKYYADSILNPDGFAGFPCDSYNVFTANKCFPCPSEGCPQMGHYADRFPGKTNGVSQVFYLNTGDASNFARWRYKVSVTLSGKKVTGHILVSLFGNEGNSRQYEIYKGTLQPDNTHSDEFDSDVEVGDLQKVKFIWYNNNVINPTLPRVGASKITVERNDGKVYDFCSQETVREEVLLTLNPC
T1 sequence (P02703 23-112 partner): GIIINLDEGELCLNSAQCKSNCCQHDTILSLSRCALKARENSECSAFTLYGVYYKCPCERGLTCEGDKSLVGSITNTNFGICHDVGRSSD
Method: as §1
The intestinal digestion step was performed in the pH stat where the pH was kept constant at 6.8 by addition of NaOH (0.05 M). […] The intestinal digestion step starts when the temperature reaches 37±0.5° C. The pH was adjusted to pH 6.8 and after incubation of two minutes at this pH and temperature, a pancreatin solution (5 mM tris, 150 mM NaCl at pH 6.8) was added. […] During the intestinal phase of digestion, the kinetics of digestion were followed using a pH-stat (TIM856, Radiometer) technique and expressed as titratable acid (rather than fatty acid) that was calculated by the equation: […]
as §2

## CCCC(=O)OCC(COC(=O)CCC)OC(=O)CCC [tributyrin]
[1]; SGF-SIF sequential digestion, 200 mg fat emulsion
  initial lipolysis rate in SIF after SGF: 44.1 ± 8.8 µmol/min
[1]; in words
  extent of hydrolysis in the stomach (gastric lipolysis): extensive hydrolysis in the stomach
[1]; indicated by decreased total fatty acid release in SIF after RGL in SGF
  lipolysis by gastric lipase: ~60%
[2]
  initial rate of lipolysis: 223 ± 59 µmol/min
